Assay results from ChEMBL document CHEMBL1201862, “PubChem BioAssay data set” (2004).
Activity calls are given as the source filed them.

Experiments:
cells = assay type: functional
[1] = target: Heat shock protein HSP 90-alpha (Homo sapiens, UniProt P07900); assay type: functional, organism-based
[2] = loss of viability in HepG2 cells – cell-based, CellTiter-Glo, cherry-picked, cytotoxicity control for Shn3 inhibitor project, dose response (AID 624134); assay type: functional
[3] = reduction of Shn3 3'UTR-driven luciferase in osteoblasts – cell-based, Clone20 osteoblasts, firefly luciferase, cherry-picked, dose response (AID 624132); assay type: functional;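 note: firefly luciferase luminescence from reporter carrying the Shn3 3'UTR in osteoblasts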
[4] = non-specific 3'UTR reporter inhibition in Clone20-Shn3RL – cell-based, Renilla luciferase, cherry-picked, counter-screen for Shn3 inhibitor project, dose response (AID 624133); assay type: functional
Aminopeptidase N = target: T1, Aminopeptidase N (Plasmodium falciparum FcB1/Columbia, UniProt O96935); test: malaria alanyl aminopeptidase activity blockers – biochemical, fluorogenic H-Leu-NHMec substrate, 1536-well (AID 1445); set-up: species or system Plasmodium falciparum 3D7, 3D7
T1 sequence (O96935 whole entry): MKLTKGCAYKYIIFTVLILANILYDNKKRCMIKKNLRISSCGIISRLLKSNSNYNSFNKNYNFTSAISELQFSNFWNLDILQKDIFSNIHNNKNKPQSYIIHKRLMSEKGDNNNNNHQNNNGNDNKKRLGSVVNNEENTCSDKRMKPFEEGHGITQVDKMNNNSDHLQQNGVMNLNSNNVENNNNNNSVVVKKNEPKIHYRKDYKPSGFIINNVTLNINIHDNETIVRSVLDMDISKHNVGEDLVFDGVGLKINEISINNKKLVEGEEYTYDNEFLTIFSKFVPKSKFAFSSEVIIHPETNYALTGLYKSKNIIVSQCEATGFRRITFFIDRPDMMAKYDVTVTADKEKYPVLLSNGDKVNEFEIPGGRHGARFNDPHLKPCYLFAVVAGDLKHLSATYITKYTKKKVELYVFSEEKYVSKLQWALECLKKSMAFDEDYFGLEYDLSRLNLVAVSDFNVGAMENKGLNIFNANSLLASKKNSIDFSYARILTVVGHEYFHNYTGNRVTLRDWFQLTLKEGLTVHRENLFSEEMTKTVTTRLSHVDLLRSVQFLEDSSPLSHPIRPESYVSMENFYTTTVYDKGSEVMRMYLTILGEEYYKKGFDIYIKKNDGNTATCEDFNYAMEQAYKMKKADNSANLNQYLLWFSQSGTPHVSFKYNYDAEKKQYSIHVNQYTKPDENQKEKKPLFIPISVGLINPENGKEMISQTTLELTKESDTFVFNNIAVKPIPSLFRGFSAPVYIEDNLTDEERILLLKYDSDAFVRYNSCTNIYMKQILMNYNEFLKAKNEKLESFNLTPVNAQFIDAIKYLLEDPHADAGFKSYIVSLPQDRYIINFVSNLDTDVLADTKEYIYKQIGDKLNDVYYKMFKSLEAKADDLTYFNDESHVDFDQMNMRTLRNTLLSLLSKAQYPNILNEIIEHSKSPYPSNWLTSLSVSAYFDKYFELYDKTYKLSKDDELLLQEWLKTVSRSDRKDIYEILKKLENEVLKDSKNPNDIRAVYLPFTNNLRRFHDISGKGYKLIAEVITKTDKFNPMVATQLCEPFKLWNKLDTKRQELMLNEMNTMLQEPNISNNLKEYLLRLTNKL

Nonstructural protein 1 = Nonstructural protein 1 (Influenza A virus, UniProt Q194T2); assay type: functional, Influenza A virus (A/California/07/2009(H1N1))
P388/ADR = test: cells; assay type: functional; settings: Mus musculus
SN12K1 = test: cells; assay type: functional; settings: Homo sapiens
[5] = HEK-293T viability loss after treatment – luminescence, T-cell screen hits, cytotoxicity control for TCR NF-kB inhibitor project, dose response (AID 489026); assay type: functional, cell-based;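 note: cells exposed to compound about 14 hours before the viability readout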
[6] = target: T2, High affinity choline transporter 1 (Homo sapiens, UniProt Q9GZV3); test: human choline transporter blockers, potency – cell-based, 5-point CRC, membrane potential dye, dose response (AID 504840); assay type: functional
T2 sequence (Q9GZV3 whole entry): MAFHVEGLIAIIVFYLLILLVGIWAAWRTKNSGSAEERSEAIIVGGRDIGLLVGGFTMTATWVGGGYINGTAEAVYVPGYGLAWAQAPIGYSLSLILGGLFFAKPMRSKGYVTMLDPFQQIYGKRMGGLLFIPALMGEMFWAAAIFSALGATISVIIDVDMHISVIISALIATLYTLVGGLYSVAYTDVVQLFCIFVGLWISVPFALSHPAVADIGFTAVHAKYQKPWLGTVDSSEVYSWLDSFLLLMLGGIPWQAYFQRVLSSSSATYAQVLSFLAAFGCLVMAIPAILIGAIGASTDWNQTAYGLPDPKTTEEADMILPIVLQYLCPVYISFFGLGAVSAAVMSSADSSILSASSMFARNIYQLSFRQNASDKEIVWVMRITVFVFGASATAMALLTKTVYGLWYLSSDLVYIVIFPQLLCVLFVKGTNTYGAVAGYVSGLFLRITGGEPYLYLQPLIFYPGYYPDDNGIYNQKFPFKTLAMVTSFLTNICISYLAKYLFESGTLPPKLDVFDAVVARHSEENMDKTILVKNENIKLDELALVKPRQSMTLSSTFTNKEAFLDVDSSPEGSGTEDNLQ

INS1 = test: INS-1E survival protection against cytokine death – cell-based, luminescence, retest, dose response (AID 449756); assay type: functional; settings: Rattus norvegicus;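 note: cell death triggered by IL-1 beta plus TNF-alpha plus IFN-gamma mixture; protective hits raise ATP signal compared with cytokine alone wells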
[7] = target: T3, Zinc finger protein mex-5 (Caenorhabditis elegans, UniProt Q9XUB2); test: potency of MEX-5 RNA-binding blockers – biochemical, C. elegans, fluorescence polarization, dose response (AID 1960)
T3 sequence (Q9XUB2 whole entry): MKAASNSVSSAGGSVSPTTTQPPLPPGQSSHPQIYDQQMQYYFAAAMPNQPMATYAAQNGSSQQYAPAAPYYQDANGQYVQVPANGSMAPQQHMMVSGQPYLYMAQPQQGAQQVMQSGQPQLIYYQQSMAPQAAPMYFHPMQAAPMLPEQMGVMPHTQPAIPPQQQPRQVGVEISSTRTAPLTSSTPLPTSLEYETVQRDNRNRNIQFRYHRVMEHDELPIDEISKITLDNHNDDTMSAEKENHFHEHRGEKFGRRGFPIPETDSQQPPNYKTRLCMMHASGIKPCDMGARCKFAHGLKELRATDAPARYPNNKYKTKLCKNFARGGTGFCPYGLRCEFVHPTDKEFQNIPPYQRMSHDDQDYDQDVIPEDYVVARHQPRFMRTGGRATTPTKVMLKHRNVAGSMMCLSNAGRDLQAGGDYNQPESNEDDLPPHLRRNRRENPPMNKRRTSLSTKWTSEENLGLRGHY

[8] = target: T4, RNA-binding protein pos-1 (Caenorhabditis elegans, UniProt G5EF15); test: disruptors of C. elegans POS-1 RNA interaction – biochemical, fluorescence polarization, dose response (AID 1964);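 note: purified POS-1 fused to maltose binding protein made in E. coli; potency of compounds blocking POS-1 binding to fluorescent RNA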
T4 sequence (G5EF15 whole entry): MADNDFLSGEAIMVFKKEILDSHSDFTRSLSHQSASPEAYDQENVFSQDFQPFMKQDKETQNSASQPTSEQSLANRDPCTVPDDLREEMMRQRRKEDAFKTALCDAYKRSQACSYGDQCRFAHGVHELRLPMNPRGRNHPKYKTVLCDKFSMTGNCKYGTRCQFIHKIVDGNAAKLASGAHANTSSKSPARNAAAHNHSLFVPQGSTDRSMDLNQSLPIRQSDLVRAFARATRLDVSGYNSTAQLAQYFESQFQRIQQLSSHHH

Streptococcus = test: GAS UMAA2166 growth inhibition – luminescence, BacTiterGlo, counter-screen for streptokinase expression inhibitor project, dose response (AID 1915); assay type: functional, organism-based;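 note: potency for reduction of bacterial viability or growth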
Streptokinase A = target: T5, Streptokinase A (Streptococcus pyogenes serotype M1, UniProt P10520); test: viability-normalized secreted streptokinase activity reduction – plasminogen activation absorbance, OD405, dose response (AID 1914); assay type: functional, Streptococcus pyogenes M1 GAS;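 note: secreted streptokinase activity via plasminogen activation per viability signal from cell pellet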
T5 sequence (P10520 whole entry): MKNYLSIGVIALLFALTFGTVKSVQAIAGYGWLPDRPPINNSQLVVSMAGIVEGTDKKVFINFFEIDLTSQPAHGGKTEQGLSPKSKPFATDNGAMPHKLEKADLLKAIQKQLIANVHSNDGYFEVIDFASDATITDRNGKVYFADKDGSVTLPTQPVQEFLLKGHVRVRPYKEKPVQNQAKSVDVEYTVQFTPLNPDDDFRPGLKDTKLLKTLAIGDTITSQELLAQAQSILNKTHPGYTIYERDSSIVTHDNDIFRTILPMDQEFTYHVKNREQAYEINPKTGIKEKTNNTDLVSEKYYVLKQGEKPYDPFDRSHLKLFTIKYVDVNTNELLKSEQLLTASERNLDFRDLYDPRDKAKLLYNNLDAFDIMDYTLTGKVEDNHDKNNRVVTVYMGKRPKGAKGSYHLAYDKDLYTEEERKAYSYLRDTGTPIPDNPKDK

[9] = system: Streptococcus sp. 'group A'; test: Streptococcus pyogenes SK(-)GAS viability under kanamycin – luminescence, BacTiterGlo, confirmation, counter-screen for streptokinase expression inhibitor project, dose response (AID 1900); assay type: functional, organism-based
BJ [10] = test: BJ-TERT fibroblast viability loss – cell-based, RAS-independent, luminescence, dose response (AID 1933); assay type: functional; settings: Homo sapiens
BJ [11] = test: cells; assay type: functional, cell-based; settings: Homo sapiens
BJ [12] = test: BJ-TERT-LT-ST fibroblast viability loss – cell-based, RAS-independent, luminescence, dose response (AID 1935); assay type: functional; settings: Homo sapiens;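 note: BJ fibroblasts immortalized with TERT plus LT and ST oncogenes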
[13] = DRD fibroblast viability loss – cell-based, non-viral oncogenic, luminescence, dose response (AID 1934); assay type: functional; settings: Homo sapiens

Sequence of Nonstructural protein 1 (Q194T2 whole entry): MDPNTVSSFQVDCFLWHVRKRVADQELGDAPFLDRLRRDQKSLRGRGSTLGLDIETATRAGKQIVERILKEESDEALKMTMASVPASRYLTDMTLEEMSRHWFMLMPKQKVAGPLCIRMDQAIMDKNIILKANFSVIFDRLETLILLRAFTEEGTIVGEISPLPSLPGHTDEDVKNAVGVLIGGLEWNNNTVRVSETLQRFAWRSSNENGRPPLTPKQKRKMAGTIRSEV

O=C(CCSc1nnc(-c2ccncc2)o1)Nc1ccc(Cl)cc1
IC50 (cells): 29.5 µM (active)
AC50 [1]: 1.65 µM (active)

O=C1C=CC(=O)N1c1ccc2c(c1)Cc1cc(F)ccc1-2
AC50 [1]: < 0.195 µM (active)

O=C(c1ccc2c(=O)n(-c3ccccc3)c(=S)[nH]c2c1)N1CCCCC1
AC50 [2]: 64.2 µM (active)
AC50 [3]: 1.44 µM (active)
AC50 [4]: 3.14 µM (active)

N#Cc1cc2c(nc1SCc1ccccc1)CCCC2=O
IC50 (Aminopeptidase N): 86.4 µM (active)

Cc1cc(C)n(CC(=O)N/N=C/c2cc([N+](=O)[O-])ccc2O)n1
IC50 (Nonstructural protein 1): 10.8 µM (active)

O=C(O)/C=C/c1c[nH]cn1
GI50 (P388/ADR): > 500 µM (inactive)
GI50 (SN12K1): > 500 µM (inactive)

COc1ccc(CCN2C(=O)C3C4C=CC(C3C2=O)C2C(=O)N(CCc3ccc(OC)c(OC)c3)C(=O)C42)cc1OC (configuration not stated)
IC50 [5]: > 80 µM (inactive)

CCc1c(C)nc2ccccc2c1O
IC50 [6]: 13.2 µM (active)

Cc1ccc(NC(=O)C2CCN(S(=O)(=O)c3ccc(N4CCCC4=O)cc3)CC2)cc1Cl
AC50 [2]: > 70 µM (inactive)
AC50 [3]: 0.549 µM (active)
AC50 (INS1): 1.93 µM (active)
AC50 [4]: 0.808 µM (active)

Cc1ccc(Oc2nc(-c3ccccn3)nc3ccccc23)cc1
EC50 [7]: 6.96 µM (active)
EC50 [8]: > 300 µM (inconclusive)
AC50 (INS1): 1.78 µM (active)
EC50 (Streptococcus): > 150 µM (not active)
EC50 (Streptokinase A): > 150 µM (not active)
EC50 [9]: 8.8 µM (active)

CC(C)(C)c1nnc(N/N=C/c2ccccc2O)n(N)c1=O
EC50 (BJ [10]): 1.86 µM (active)
EC50 (BJ [11]): 8.53 µM (inconclusive)
IC50 (Nonstructural protein 1): 5.93 µM (active)
EC50 (BJ [12]): 15.1 µM (active)
EC50 [13]: 2.47 µM (active)
IC50 [5]: > 80 µM (inactive)

Oc1ccc(C=NNC(=S)Nc2ccc(F)cc2)c(O)c1
IC50 (Nonstructural protein 1): 14.6 µM (active)

O=C(O)c1cccc(N2C(=O)c3cccc4c(Cl)ccc(c34)C2=O)c1
IC50 (Aminopeptidase N): 83.3 µM (active)

O=C(Sc1cccc2cccnc12)c1ccc(F)cc1
IC50 [5]: > 80 µM (inactive)

O=C(Nn1c(SCc2ccc(F)cc2)nc2ccsc2c1=O)c1ccccc1
IC50 (Aminopeptidase N): 55.6 µM (active)
